From PubChem BioAssay AID248 (DTP/NCI, 2004)
Values joined by “and” are separate entries in the source; they are usually repeats but may differ in a detail not shown here. Equal values may be shown once. Inconclusive results and toxic doses are left out.

System: L1210 leukemia ip in BDF1 mice, survival T/C
Assay: NCI In Vivo Anticancer Drug Screen. Data for tumor model L1210 Leukemia (intraperitoneal) in B6D2F1 (BDF1) mice
Settings: endpoint: mean survival time, higher = longer survival
Summary of the method: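 Read-out is survival time, reported as the treated-group measurement over the vehicle-control measurement.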

[1] = dose: 25.0 mg/kg/injection, schedule: Q01DX009 (ip), vehicle: Klucel (hydroxypropylcellulose) (HPC)
[2] = dose: 50.0 mg/kg/injection, schedule: Q01DX009 (ip), vehicle: Klucel (hydroxypropylcellulose) (HPC)
[3] = dose: 100.0 mg/kg/injection, schedule: Q01DX009 (ip), vehicle: Klucel (hydroxypropylcellulose) (HPC)
[4] = dose: 100.0 mg/kg/injection, schedule: Q04DX003 (ip), vehicle: Klucel (hydroxypropylcellulose) (HPC)
[5] = dose: 200.0 mg/kg/injection, schedule: Q04DX003 (ip), vehicle: Klucel (hydroxypropylcellulose) (HPC)
[6] = dose: 400.0 mg/kg/injection, schedule: Q04DX003 (ip), vehicle: Klucel (hydroxypropylcellulose) (HPC)
[7] = dose: 100.0 mg/kg/injection, schedule: Q01DX001 (ip), vehicle: Klucel (hydroxypropylcellulose) (HPC)
[8] = dose: 200.0 mg/kg/injection, schedule: Q01DX001 (ip), vehicle: Klucel (hydroxypropylcellulose) (HPC)
[9] = dose: 400.0 mg/kg/injection, schedule: Q01DX001 (ip), vehicle: Klucel (hydroxypropylcellulose) (HPC)
[10] = dose: 12.5 mg/kg/injection, schedule: Q04DX003 (ip), vehicle: saline
[11] = dose: 100.0 mg/kg/injection, schedule: Q01DX009 (ip), vehicle: saline
[12] = dose: 200.0 mg/kg/injection, schedule: Q01DX009 (ip), vehicle: saline
[13] = dose: 400.0 mg/kg/injection, schedule: Q01DX009 (ip), vehicle: saline
[14] = dose: 100.0 mg/kg/injection, schedule: Q01DX001 (ip), vehicle: saline
[15] = dose: 200.0 mg/kg/injection, schedule: Q01DX001 (ip), vehicle: saline
[16] = dose: 400.0 mg/kg/injection, schedule: Q01DX001 (ip), vehicle: saline
[17] = dose: 150.0 mg/kg/injection, schedule: Q01DX001 (ip), vehicle: saline

CCOC(=O)Nc1ccccc1-c1ccccc1
T/C (dose: 100.0 mg/kg/injection, schedule: Q04DX002 (sc), vehicle: olive oil, sesame oil, peanut oil): 94 % of control
T/C (dose: 200.0 mg/kg/injection, schedule: Q04DX002 (sc), vehicle: olive oil, sesame oil, peanut oil): 105 % of control
T/C (dose: 400.0 mg/kg/injection, schedule: Q04DX002 (sc), vehicle: olive oil, sesame oil, peanut oil): 97 % of control

COc1cc(C(=O)NC(CCC(=O)O)C(=O)O)ccc1N(C)Cc1cnc2nc(N)nc(N)c2n1 (stereo not drawn)
T/C (dose: 6.25 mg/kg/injection, schedule: Q01DX009 (ip), vehicle: sodium bicarbonate): 154 % of control
T/C (dose: 25.0 mg/kg/injection, schedule: Q01DX009 (ip), vehicle: sodium bicarbonate): 178 % of control

CCc1cccc(CC)c1NC(=O)c1ccccc1Cl
T/C (dose: 100.0 mg/kg/injection, schedule: Q04DX002 (ip), vehicle: Klucel (hydroxypropylcellulose) (HPC)): 102 % of control
T/C (dose: 200.0 mg/kg/injection, schedule: Q04DX002 (ip), vehicle: Klucel (hydroxypropylcellulose) (HPC)): 97 % of control
T/C (dose: 400.0 mg/kg/injection, schedule: Q04DX002 (ip), vehicle: Klucel (hydroxypropylcellulose) (HPC)): 94 % of control

CC1(C)NC(=O)C(/C=C/c2ccccc2)O1 (stereo not drawn)
T/C [1]: 102 % of control
T/C (dose: 25.0 mg/kg/injection, schedule: Q04DX003 (ip), vehicle: Klucel (hydroxypropylcellulose) (HPC)): 97 % of control
T/C [2]: 100 % of control
T/C (dose: 50.0 mg/kg/injection, schedule: Q04DX003 (ip), vehicle: Klucel (hydroxypropylcellulose) (HPC)): 95 % of control
T/C [3]: 89 % of control
T/C [4]: 97 % of control
T/C [5]: 92 % of control
T/C [6]: 101 % of control

CCC(C(=O)C(C)C(O)C(C)CCc1ccc(C)c(O)c1C(=O)O)C1OC(CC)(C2CCC(O)(CC)C(C)O2)CC1C (stereo not drawn)
T/C (dose: 6.25 mg/kg/injection, schedule: Q04DX002 (ip), vehicle: saline): 100 % of control
T/C (dose: 12.5 mg/kg/injection, schedule: Q04DX002 (ip), vehicle: saline): 92 % of control
T/C (dose: 25.0 mg/kg/injection, schedule: Q04DX002 (ip), vehicle: saline): 92 % of control
T/C (dose: 50.0 mg/kg/injection, schedule: Q04DX002 (ip), vehicle: saline): 103 % of control

CC(=O)[O][Hg][C]([Hg][O]C(C)=O)([Hg][O]C(C)=O)[Hg][O]C(C)=O
T/C [7]: 91 % of control
T/C [8]: 96 % of control
T/C [9]: 89 % of control

CC[N+](CC)(CC)CCCCCC[N+](CC)(CC)CC
T/C (dose: 3.15 mg/kg/injection, schedule: Q01DX009 (ip), vehicle: water): 113 % of control
T/C (dose: 6.25 mg/kg/injection, schedule: Q01DX009 (ip), vehicle: water): 103 % of control
T/C (dose: 6.25 mg/kg/injection, schedule: Q04DX003 (ip), vehicle: saline): 103 % of control
T/C (dose: 12.5 mg/kg/injection, schedule: Q01DX009 (ip), vehicle: water): 100 % of control and 103 % of control
T/C [10]: 104 % of control

CC(=O)Nc1ccc(OC(=O)Nc2c(C)cccc2Cl)cc1
T/C [1]: 101 % of control
T/C [2]: 95 % of control
T/C [3]: 94 % of control and 101 % of control

CC1COCC(C)N1 (stereo not drawn)
T/C (dose: 25.0 mg/kg/injection, schedule: Q01DX009 (ip), vehicle: saline): 101 % of control
T/C (dose: 50.0 mg/kg/injection, schedule: Q01DX009 (ip), vehicle: saline): 93 % of control
T/C [11]: 90 % of control
T/C [12]: 90 % of control
T/C [13]: 92 % of control

CNc1[nH]c(=S)ncc1C
T/C (dose: 100.0 mg/kg/injection, schedule: Q01DX Z (ip), vehicle: methylcellulose (MC)): 100 % of control
T/C (dose: 200.0 mg/kg/injection, schedule: Q01DX Z (ip), vehicle: methylcellulose (MC)): 99 % of control

CC1(O)CC2CCC1C2 (stereo not drawn)
T/C (dose: 100.0 mg/kg/injection, schedule: Q01DX009 (ip), vehicle: other): 102 % of control
T/C (dose: 100.0 mg/kg/injection, schedule: Q01DX009 (ip), vehicle: saline with Tween-80): 92 % of control
T/C (dose: 100.0 mg/kg/injection, schedule: Q04DX003 (ip), vehicle: other): 95 % of control
T/C (dose: 200.0 mg/kg/injection, schedule: Q01DX009 (ip), vehicle: other): 120 % of control
T/C (dose: 200.0 mg/kg/injection, schedule: Q01DX009 (ip), vehicle: saline with Tween-80): 106 % of control
T/C (dose: 200.0 mg/kg/injection, schedule: Q04DX003 (ip), vehicle: other): 100 % of control
T/C (dose: 400.0 mg/kg/injection, schedule: Q01DX009 (ip), vehicle: other): 104 % of control
T/C (dose: 400.0 mg/kg/injection, schedule: Q01DX009 (ip), vehicle: saline with Tween-80): 92 % of control
T/C (dose: 400.0 mg/kg/injection, schedule: Q04DX003 (ip), vehicle: other): 91 % of control

O=C(Nc1ccnc(=O)[nH]1)c1ccccc1
T/C [7]: 91 % of control
T/C [8]: 100 % of control
T/C [9]: 92 % of control

CC(=O)Nc1cc(F)c([N+](=O)[O-])cc1[N+](=O)[O-]
T/C (dose: 0.62 mg/kg/injection, schedule: Q01DX009 (ip), vehicle: saline): 96 % of control
T/C (dose: 1.25 mg/kg/injection, schedule: Q01DX009 (ip), vehicle: saline): 102 % of control
T/C (dose: 2.5 mg/kg/injection, schedule: Q01DX009 (ip), vehicle: saline): 93 % of control
T/C (dose: 2.5 mg/kg/injection, schedule: Q01DX015 (ip), vehicle: carboxymethylcellulose (CMC)): 95 % of control
T/C (dose: 3.13 mg/kg/injection, schedule: Q04DX003 (ip), vehicle: saline with Tween-80): 106 % of control
T/C (dose: 5.0 mg/kg/injection, schedule: Q01DX009 (ip), vehicle: saline): 104 % of control
T/C (dose: 5.0 mg/kg/injection, schedule: Q01DX015 (ip), vehicle: carboxymethylcellulose (CMC)): 95 % of control
T/C (dose: 6.25 mg/kg/injection, schedule: Q04DX003 (ip), vehicle: saline with Tween-80): 90 % of control
T/C (dose: 10.0 mg/kg/injection, schedule: Q01DX009 (ip), vehicle: saline with Tween-80): 92 % of control
T/C (dose: 10.0 mg/kg/injection, schedule: Q01DX009 (ip), vehicle: saline): 96 % of control
T/C (dose: 10.0 mg/kg/injection, schedule: Q01DX015 (ip), vehicle: carboxymethylcellulose (CMC)): 91 % of control
T/C (dose: 12.5 mg/kg/injection, schedule: Q04DX003 (ip), vehicle: saline with Tween-80): 94 % of control
T/C [10]: 86 % of control
T/C (dose: 20.0 mg/kg/injection, schedule: Q01DX009 (ip), vehicle: saline with Tween-80): 103 % of control
T/C (dose: 25.0 mg/kg/injection, schedule: Q04DX003 (ip), vehicle: saline with Tween-80): 105 % of control
T/C (dose: 50.0 mg/kg/injection, schedule: Q01DX001 (ip), vehicle: saline): 104 % of control and 106 % of control
T/C [14]: 95 % of control and 91 % of control
T/C [15]: 112 % of control
T/C [16]: 106 % of control

O=C(Nc1ccc(Cl)cc1Cl)Nc1cc(C(F)(F)F)ccc1Cl
T/C [11]: 98 % of control
T/C [12]: 95 % of control
T/C [13]: 92 % of control

CC(C)CC(N)C(=O)NNc1ccccc1 (stereo not drawn)
T/C (dose: 75.0 mg/kg/injection, schedule: Q01DX001 (ip), vehicle: saline): 101 % of control
T/C [17]: 103 % of control
T/C (dose: 300.0 mg/kg/injection, schedule: Q01DX001 (ip), vehicle: saline): 108 % of control

Cc1c(C)c2cc3ccc(Cl)cc3nc2c2ccccc12
T/C [4]: 103 % of control
T/C [5]: 105 % of control
T/C [6]: 110 % of control

O=C1C[C@@H]2OCC=C3C[N+]4([O-])CC[C@]56c7ccccc7N1[C@H]5[C@H]2[C@H]3C[C@@H]64 (stereo partly drawn)
T/C [17]: 106 % of control

CC(=O)N1CCN(C(C)=O)c2ccccc21
T/C [4]: 106 % of control
T/C [5]: 103 % of control
T/C [6]: 106 % of control

COC(=O)C1OC(CO)C(O)C1O (stereo not drawn)
T/C [14]: 105 % of control
T/C (dose: 100.0 mg/kg/injection, schedule: Q04DX003 (ip), vehicle: saline): 110 % of control
T/C [15]: 113 % of control
T/C (dose: 200.0 mg/kg/injection, schedule: Q04DX003 (ip), vehicle: saline): 107 % of control
T/C [16]: 97 % of control
T/C (dose: 400.0 mg/kg/injection, schedule: Q04DX003 (ip), vehicle: saline): 110 % of control
